The source of these data is PMC4225773 (Bioorganic & medicinal chemistry letters, 2014).

Data set [1] can be described thus: in vitro. The following applies: human.
Data set [2] deals with Intra-macrophage Amastigote Stage of L. donovani.
For data set [3], the system named is promastigote stage of L. donovani. Put plainly: Alamar blue.
For data set [4], the system named is HDAC8. The following applies: read-out: HDAC8 IC50; NI = No Inhibition at maximum tested concentration of 10 µM (percentage inhibition < 20%); cited from earlier work.
The subject of data set [5] is HDAC6. The following applies: cited from earlier work; for IC50: read-out: HDAC6 IC50, NI = No Inhibition at maximum tested concentration of 10 µM (percentage inhibition < 20%); for HDAC6 % inhibition at 10 µM: given if the IC50 was above 10 µM.
Data set [6] in a line: Cytotoxicity to uninfected THP1 macrophage cells. The following applies: human.
Data set [7] has as its system Intra-macrophage Amastigote Stage of L. donovani. Put plainly: Amastigote-macrophage assay. The following applies: for Cytotoxic activity against intra-macrophage amastigote (in words): THP1 host cells, 3HP values in Table S1 (not available); for Potency enhancement, intra-macrophage amastigote relative to axenic amastigote: comparing Tables 1 and 2.
Data set [8] deals with axenic amastigote of L. donovani. Put plainly: Alamar blue. The class given is cell-based. In general terms: Alamar Blue is a resazurin reagent that responds to reducing activity.
The mark [9] stands for this setting: L. donovani promastigote, maximum concentration tested 40 µg/mL.
Setting [10] is: uninfected THP1 macrophage cells.
Where [11] appears, read: L. donovani axenic amastigote, maximum tested concentration 40 µg/mL.

≈ marks a conversion by molar mass, not a printed value. Read-outs that look alike come from different tables or passages of the source. Marks after values point to notes of the source that are not given here.

The IC50 is the concentration that inhibits the measured activity by half.

As for `C[C@@H]1[C@H](O)[C@@H](C)/C=C/C=C/C=C/C=C/C=C/C=C/C=C/[C@H](O[C@@H]2O[C@H](C)[C@@H](O)[C@H](N)[C@@H]2O)C[C@@H]2O[C@](O)(C[C@@H](O)C[C@@H](O)[C@H](O)CC[C@@H](O)C[C@@H](O)CC(=O)O[C@H]1C)C[C@H](O)[C@H]2C(=O)O` [Amphotericin B], the IC50 is more than 10 µg/mL in data set [1] and 0.4 µg/mL (≈ 0.433 µM) in data set [3] (Leishmania donovani, read-out: Promastigote IC50). For the same molecule, the “Cytotoxic activity against intra-macrophage amastigote (in words)” value (“Cytotoxic activity” below) in data set [2] is on record as “potently cytotoxic”.
Turning to `Oc1cccnc1O` [Compound 1a], the 50% inhibitory concentration (IC50) in data set [4] and in data set [5] was more than 10 µM in each case. For the same molecule, the “Cytotoxicity to promastigote stage (in words)” value in data set [3] (setting [9]) was “inactive”.
In the case of `Oc1ccc[nH]c1=S` [Compound 1b], the IC50 in data set [4] was 3.68 ± 1.2 µM; in data set [6] (setting [10]), more than 10 µg/mL; in data set [5] it was 0.681 ± 0.11 µM. Also, in data set [3] (setting [9]), the “Cytotoxicity to promastigote stage (in words)” value was “weakly cytotoxic”.
`O=c1c(O)cccn1Cc1ccccc1` [Compound 2a]: the concentration for half-maximal inhibition (IC50) in data set [4] and in data set [5] was more than 10 µM each time.
As to `Oc1cccn(Cc2ccccc2)c1=S` [Compound 2b], the results for the half-maximal inhibitory concentration (IC50) in data set [4], in data set [6] (setting [10]) and in data set [5] were 1.27 ± 0.2 µM, more than 10 µg/mL and 0.457 ± 0.027 µM, respectively.
Regarding `O=c1c(O)cccn1Cc1ccc(-c2ccccc2)cc1` [Compound 3a], the half-maximal inhibitory concentration (IC50) in data set [4] and in data set [5] was more than 10 µM throughout. Besides, the “Cytotoxic activity” value in data set [7] is given as “moderate to good cytotoxic activities”.
For `Oc1cccn(Cc2ccc(-c3ccccc3)cc2)c1=S` [Compound 3b], the half-maximal inhibitory concentration (IC50) in data set [4] is 4.28 ± 1.55 µM; in data set [6] (setting [10]) it was more than 10 µg/mL; in data set [5], 0.847 ± 0.188 µM. The “Potency enhancement, intra-macrophage amastigote relative to axenic amastigote” value in data set [7] is listed as 5- to 25 fold.
Consider `N#Cc1ccc(-c2ccc(Cn3cccc(O)c3=O)cc2)cc1` [Compound 4a], for which the concentration for half-maximal inhibition (IC50) in data set [4] and in data set [5] was more than 10 µM in each case. The “Cytotoxic activity” value in data set [7] is given as “moderately active”. For the same molecule, in data set [8] (setting [11]), the “Cytotoxicity to axenic amastigote (in words)” value is given as “about equipotent to both stages of L. donovani”.
Regarding `N#Cc1ccc(-c2ccc(Cn3cccc(O)c3=S)cc2)cc1` [Compound 4b], the IC50 in data set [4] was 2.08 ± 0.459 µM; in data set [6] (setting [10]), more than 10 µg/mL; in data set [5], 0.957 ± 0.159 µM. Moreover, the “Potency enhancement, intra-macrophage amastigote relative to axenic amastigote” value in data set [7] is given as 5- to 25 fold.
For `N#Cc1cccc(-c2ccc(Cn3cccc(O)c3=O)cc2)c1` [Compound 5a], the concentration for half-maximal inhibition (IC50) in data set [4] and in data set [5] was more than 10 µM each time. Moreover, the “Cytotoxic activity” value in data set [7] is recorded as “moderate to good cytotoxic activities”.
In the case of `N#Cc1cccc(-c2ccc(Cn3cccc(O)c3=S)cc2)c1` [Compound 5b], the values for the 50% inhibitory concentration (IC50) in data set [4] and in data set [6] (setting [10]) were 1.7 ± 0.717 µM and more than 10 µg/mL, respectively. The “HDAC6 % inhibition at 10 µM” value in data set [5] was 44% ^†.
For `N#Cc1ccccc1-c1ccc(Cn2cccc(O)c2=O)cc1` [Compound 6a], the IC50 in data set [4] and in data set [5] was more than 10 µM throughout.
As to `N#Cc1ccccc1-c1ccc(Cn2cccc(O)c2=S)cc1` [Compound 6b], the half-inhibitory concentration (IC50) was 1.91 ± 0.771 µM in data set [4], more than 10 µg/mL in data set [6] (setting [10]) and 0.372 ± 0.035 µM in data set [5]. Further, the “Cytotoxic activity” value in data set [7] was “inactive”.
As for `Cc1ccc(-c2ccc(Cn3cccc(O)c3=O)cc2)cc1` [Compound 7a], the IC50 in data set [4] and in data set [5] was more than 10 µM throughout.
Consider `Cc1ccc(-c2ccc(Cn3cccc(O)c3=S)cc2)cc1` [Compound 7b], for which the 50% inhibitory concentration (IC50) in data set [4] was 0.8 ± 0.304 µM; in data set [6] (setting [10]), more than 10 µg/mL; in data set [5], 0.454 ± 0.042 µM.
In the case of `Cc1cccc(-c2ccc(Cn3cccc(O)c3=O)cc2)c1` [Compound 8a], the IC50 in data set [4] and in data set [5] was more than 10 µM in each case.
Turning to `Cc1cccc(-c2ccc(Cn3cccc(O)c3=S)cc2)c1` [Compound 8b], the IC50 in data set [4] was 2.5 ± 1.18 µM; in data set [6] (setting [10]), more than 10 µg/mL; in data set [5], 0.812 ± 0.286 µM. The “Cytotoxic activity” value in data set [7] was “inactive”.
On to `Cc1ccccc1-c1ccc(Cn2cccc(O)c2=O)cc1` [Compound 9a], for which the 50% inhibitory concentration (IC50) in data set [4] and in data set [5] was more than 10 µM each time.
In the case of `Cc1ccccc1-c1ccc(Cn2cccc(O)c2=S)cc1` [Compound 9b], the IC50 is 3.1 ± 1.65 µM in data set [4], more than 10 µg/mL in data set [6] (setting [10]) and 0.306 ± 0.069 µM in data set [5].
`CN(C)c1ccc(-c2ccc(Cn3cccc(O)c3=O)cc2)cc1` [Compound 10a]: the IC50 in data set [4] and in data set [5] was more than 10 µM in each case. In addition, the “Cytotoxicity to axenic amastigote (in words)” value in data set [8] (setting [11]) is on record as “about equipotent to both stages of L. donovani”.
In the case of `CN(C)c1ccc(-c2ccc(Cn3cccc(O)c3=S)cc2)cc1` [Compound 10b], the IC50 in data set [4] was 2.86 ± 0.944 µM; in data set [6] (setting [10]), more than 10 µg/mL; in data set [5], more than 10 µM. For the same molecule, in data set [7], the “Potency enhancement, intra-macrophage amastigote relative to axenic amastigote” value was 5- to 25 fold.
`CN(C)c1ccc(-c2ccc(Cn3cccc(O)c3=O)cc2)cn1` [Compound 11a]: the concentration for half-maximal inhibition (IC50) in data set [4] and in data set [5] was more than 10 µM throughout.
As to `CN(C)c1ccc(-c2ccc(Cn3cccc(O)c3=S)cc2)cn1` [Compound 11b], the values for the IC50 in data set [4], in data set [6] (setting [10]) and in data set [5] were more than 10 µM, more than 10 µg/mL and 2.39 ± 0.458 µM, respectively.
As for `O=c1c(O)cccn1Cc1cn(-c2ccccc2)nn1` [Compound 12a], the half-maximal inhibitory concentration (IC50) in data set [4] and in data set [5] was more than 10 µM each time.
Turning to `Oc1cccn(Cc2cn(-c3ccccc3)nn2)c1=S` [Compound 12b], the IC50 in data set [4] was 1.57 ± 1.07 µM; in data set [6] (setting [10]) it was more than 10 µg/mL. In addition, in data set [5], the “HDAC6 % inhibition at 10 µM” value is given as 41% ^†.
Take `CN(C)c1ccc(-n2cc(Cn3cccc(O)c3=O)nn2)cc1` [Compound 13a]: the IC50 in data set [4] and in data set [5] was more than 10 µM each time. Further, the “Cytotoxic activity” value in data set [7] is recorded as “moderate to good cytotoxic activities”.
`CN(C)c1ccc(-n2cc(Cn3cccc(O)c3=S)nn2)cc1` [Compound 13b]: the half-inhibitory concentration (IC50) in data set [4] is 1.87 ± 0.723 µM; in data set [6] (setting [10]) it was more than 10 µg/mL; in data set [5], 1.02 ± 0.099 µM.
With `COc1ccc(Cn2ccc3ccc(C(=O)NO)cc32)cc1` [PCI-34051, reference compound], the “Cytotoxic activity” value in data set [7] was “inactive”. In data set [6], this molecule returned a half-inhibitory concentration (IC50) of more than 10 µg/mL. The “Cytotoxicity to promastigote stage (in words)” value in data set [3] (setting [9]) was “minimal effect”.
Consider `N=C(N)c1ccc(OCCCCCOc2ccc(C(=N)N)cc2)cc1` [Pentamidine, pentamidine], for which the 50% inhibitory concentration (IC50) in data set [1] is more than 10 µg/mL. In addition, the “Cytotoxic activity” value in data set [2] is reported as “potently cytotoxic”.
Regarding `O=C(CCCCCCC(=O)Nc1ccccc1)NO` [SAHA, suberoylanilide hydroxamic acid, reference compound], the “Cytotoxicity to axenic amastigote (in words)” value in data set [8] is “non-toxic”. Besides, the “Cytotoxicity to promastigote stage (in words)” value in data set [3] is recorded as “minimal effect”.
As for `CN1CCc2c(c3ccccc3n2Cc2ccc(C(=O)NO)cc2)C1` [Tubastatin A, reference compound], the concentration for half-maximal inhibition (IC50) in data set [6] (setting [10]) was more than 10 µg/mL.
